Assay results published in patent publication US8575368B2, “Proanthocyanidin of cashew apple, composition containing proanthocyanidin, and application thereof” (Nichirei Biosciences, Inc., priority 2008, dated 2013).
Counter-ions that a name gives are not always drawn. Like-named read-outs stand apart in the source and are kept apart here.

Legend:
[1] = target: lipase from Pseudomonas sp. (type XIII); assay: Bacterial lipase inhibitory activity test (4-methylumbelliferyl oleate fluorescence); format: biochemical; conditions: 0.1 μg/ml lipase solution
Source text: In order to extensively evaluate lipase inhibitory activities of the product of the present invention and of a plurality of known components, lipase derived from commercially available bacteria of Pseudomonas (Pseudomonas sp.) was used. Pseudomonas is a […] of gram-negative aerobic bacteria. A representative example of well-known bacteria is P. aeruginosa. In the experiment, lipase from Pseudomonas sp. (type XIII, ≧15 units/solid, L9518, Sigma-Aldrich Japan) was used. This lipase is a very potent enzyme. From the preliminary inquiry to the inhibitory activity test, 0.1 μg/ml of a lipase solution was used. In the experiment, fractions obtained in Examples 2 and 3 containing proanthocyanidin polymers derived from cashew apple of the present invention were subjected to the assay. The following reagent was used as a control sample to assay lipase inhibitory activity.
Assay was carried out in accordance with Non-Patent Document 2 (J. Agric. Food Chem., 2007, 55, 4604-4609). A specimen diluent and a blank solution (a specimen diluent) were added to a 96-well fluorescence plate and then at 25 μl/well. A lipase solution prepared with the use of PBS(−) (lipase from Pseudomonas sp. Type XIII, SIGMA) was added to the test of the present invention at 25 μl/well and PBS(−) was added to the blind test group at 25 μl/well. A 0.1 mM fluorescent substrate solution (4-methylumbelliferyl oleate, Fluka) prepared with the use of PBS(−) was added thereto at 50 μl/well, and the reaction was then allowed to proceed for 20 minutes. A 0.1 M sodium citrate solution (pH 4.2) was added as a reaction terminator at 100 μl/well, and fluorescence intensity was assayed using a fluorescence plate reader (Ex 365 nm, Em 450 nm). Lipase inhibitory activity was determined by the following formula. 3,4-Dihydroxycinnamic acid and gallic acid were dissolved in an aqueous solution of 10% methanol, and a blank solvent was subjected to the assay with the use of an aqueous methanol solution at the same concentration.
<Calculation Formula> Lipase inhibitory activity(%)=(1−(A−B)/(C−D))×100 A: fluorescence intensity in the blind test using a sample solution B: fluorescence intensity in the test of the present invention using a sample solution C: fluorescence intensity in the blind test using a blank solution (a dilute solvent) D: fluorescence intensity in the test of the present invention using a blank solution (a dilute solvent)
Enzyme inhibitory activities of the sample solutions were assayed at a plurality of concentrations, the data were logarithmically plotted, and the concentration at which 50% of lipase activity was inhibited (IC50) was determined by the least-square method.
Using the powders prepared by fractionation via ultrafiltration and lyophilization in Example 3, the relationship between the molecular weight and the bacterial lipase inhibitory activity was examined. The lipase inhibitory activity test was carried out in the manner described in Example 9.

[2] = Assay of antioxidation activity via DPPH radical elimination; conditions: 30° C., 30 minutes, absorbance 517 nm
Experimental: A solution of a stable radical, diphenyl-p-picrylhydradil (DPPH), in ethanol was used to evaluate the antioxidation activity. Ethanol (1,200 μl) and 400 μl of specimens (adjusted at an arbitrary concentration) were mixed with 1,600 μl of 250 mM acetate buffer (pH 5.5), and the mixture was preincubated at 30° C. for 5 minutes. A 500 μM DPPH/ethanol solution (800 μl) was added thereto, the resulting mixture was allowed to stand at 30° C. for 30 minutes, and the absorbance at 517 nm was assayed. When the control sample dissolved in ethanol was used as a specimen, 800 μl of ethanol, 400 μl of a solution of specimens in ethanol, and 400 μl of purified water were mixed, and the resulting mixture was preincubated at 30° C. for 5 minutes. A 500 μM DPPH/ethanol solution (800 μl) was added thereto, the resulting mixture was allowed to stand at 30° C. for 30 minutes, and the absorbance at 517 nm was assayed. A solution prepared in the same manner except for the use of purified water was used as a control sample. Based on the absorbance assayed, the percentage of radical elimination was determined by the following formula. Radical elimination(%)=(1−[absorbance of sample]/[absorbance of control])×100
The concentration of the sample in the sample solution was gradually changed to determine the percentage of radical elimination, the concentration of the sample solution at which the percentage of DPPH radical elimination became 50% was determined, and the determined value was designated as the 50% elimination concentration of DPPH radicals. As the value is reduced, the capacity for radical elimination is enhanced.

[3] = target: T1, lipase from porcine pancreas Type II (Sus scrofa, UniProt P00591); assay: Lipase inhibitory activity assay (4-methylumbelliferyl oleate fluorescence); format: biochemical; conditions: final specimen concentration; porcine pancreatic lipase
T1 construct: lipase from porcine pancreas Type II, SIGMA; purchased SIGMA; host or cells: porcine pancreas
Experimental: Assay was carried out in accordance with Non-Patent Document 2 (J. Agric. Food Chem., 2007, 55, 4604-4609). A specimen solution was added to a 96-well fluorescence plate at 25 μl/well. A lipase solution (lipase from porcine pancreas Type II, SIGMA) prepared with the use of PBS(−) was added to the plate of the test group at 25 μl/well and PBS(−) was added to the plate of the blind test group at 25 μl/well. A 0.1 mM fluorescent substrate solution (4-methylumbelliferyl oleate, Fluka) prepared with the use of PBS(−) was added thereto at 50 μl/well, and the reaction was then allowed to proceed for 20 minutes. A 0.1 M sodium citrate solution (pH 4.2) was added as a reaction terminator at 100 μl/well, and fluorescence intensity was assayed using a fluorescence plate reader (Ex 365 nm, Em 450 nm). In a blank test, samples of the test group and of the blind test group were prepared and fluorescence intensity was assayed in the same manner as described above, except that the same amount of a solvent used for the preparation of a specimen solution was used instead of “specimen solution.” The percentage of lipase inhibition was determined by the following formula. […]

[4] = target: T2, lipase (Sus scrofa, UniProt P00591); conditions: Non-Patent Document 2; read-out: Lipase inhibitory activity (IC50) (converted); cited from earlier work
T2 sequence (P00591 1-450): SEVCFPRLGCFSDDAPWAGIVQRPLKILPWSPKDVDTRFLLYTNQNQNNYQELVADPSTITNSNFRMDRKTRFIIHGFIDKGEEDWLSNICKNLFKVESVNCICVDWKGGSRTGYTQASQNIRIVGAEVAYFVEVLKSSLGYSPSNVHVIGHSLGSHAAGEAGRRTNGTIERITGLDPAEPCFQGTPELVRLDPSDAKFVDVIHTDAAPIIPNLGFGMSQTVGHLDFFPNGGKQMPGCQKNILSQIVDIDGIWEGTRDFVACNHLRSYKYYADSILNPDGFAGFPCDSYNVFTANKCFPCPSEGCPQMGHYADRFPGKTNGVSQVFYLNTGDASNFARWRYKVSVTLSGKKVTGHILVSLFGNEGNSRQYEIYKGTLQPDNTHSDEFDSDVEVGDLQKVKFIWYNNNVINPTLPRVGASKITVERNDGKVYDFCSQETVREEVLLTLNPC

[5] = target: T2, lipase; conditions: cited from earlier work; for IC50: read-out: Lipase inhibitory activity (IC50)

Compound | Activity of bacterial lipase inhibition (IC50) [1] | 50% Elimination concentration of DPPH radicals [2] | also measured
CN(C)[C@@H]1C(O)=C(C(N)=O)C(=O)[C@@]2(O)C(O)=C3C(=O)c4c(O)cccc4[C@@](C)(O)[C@H]3C[C@@H]12 [Tetracycline hydrochloride] | 134.6 µg/mL |  | 
O=C1O[C@H]([C@@H](O)CO)C(O)=C1O [L(+)-ascorbic acid] |  | 3.9 µg/mL | 
O=C(/C=C/c1ccc(O)c(O)c1)O[C@@H]1C[C@](O)(C(=O)O)C[C@@H](O)[C@H]1O [Chlorogenic acid, chlorogenic acid] | 69.2 µg/mL |  | IC50 [3]: 219 µM; IC50 [4]: 169 µM
O=C(O)C=Cc1ccc(O)c(O)c1 [3,4-Dihydroxycinnamic acid] | 42.3 µg/mL | 2.8 µg/mL | 
O.O=C(O)c1cc(O)c(O)c(O)c1 [Gallic acid monohydrate] | 574.2 µg/mL | 1.2 µg/mL | 
(−)-epigallocatechin 3-O-gallate [Epigallocatechin gallate] | 918.8 µg/mL | 2.0 µg/mL | Lipase inhibitory activity (IC50) [3]: 20.0 µg/mL; IC50 ([5]; Patent Document 4): 0.284 µM; Lipase inhibitory activity (IC50) ([5]; Patent Document 5, value in brackets): 0.16 µg/mL; IC50 ([5]; Patent Document 5): 0.349 µM
